Earlier results as cited in US20040043089A1, “Buguzhi agent and composition and methods of preparing and administering the same” (priority 2002, published 2004).

details: literature statement

With Cc1cc2cc3c(C)cc(=O)oc3c(C)c2o1 [Trioxsalen] as the molecule, how does the “Phototoxicity (in words)” value read?
Its value is “weak phototoxicity”.

With O=c1ccc2ccc3occc3c2o1 [angelicin] as the molecule, how does the “Phototoxicity (in words)” value read?
The value was “only weakly phototoxic”.

With COc1c2ccoc2cc2oc(=O)ccc12 [bergapten, 5-methoxypsoralen] as the molecule, how does the “Phototoxicity (in words)” value read?
Its value is “phototoxic”.

Which “Phototoxicity (in words)” value does the source give for COc1c2ccoc2c(OC)c2oc(=O)ccc12 [isopimpinellin] here?
Its value is “only weakly phototoxic”.

With COc1c2occc2c(OC)c2c(=O)cc(C)oc12 [khellin] as the molecule, how does the “Phototoxicity (in words)” value read?
The value was “weak phototoxicity”.

With CC(C)=CCc1c(O)ccc2ccc(=O)oc12 [osthenol] as the molecule, how does the “Phototoxicity (in words)” value read?
Its value is “weak phototoxicity”.

Which “Phototoxicity (in words)” value does the source give for COc1c(C(C)C)oc2cc3oc(=O)ccc3cc12 [peucedanin] here?
Its value is “weak phototoxicity”.

Which “Phototoxicity (in words)” value does the source give for COc1c2occc2cc2ccc(=O)oc12 [xanthotoxin, 8-methoxypsoralen] here?
Its value is “phototoxic”.
